Assay results reported in patent publication US5378838A, “Benzodiazepine cholecystokinin antagonists” (Merck & Co., Inc., priority 1993, dated 1995).
pIC50: −log10 of the molar value. Like-named read-outs stand apart in the source and are kept apart here.

Experiments:
CCK receptor (brain) = target: T1, CCK receptor (brain) (Cavia porcellus, UniProt H0VZC5); assay: CCK Receptor Binding (Brain), inhibition of 125I-CCK-8 binding; design: species or system guinea pig (male Hartley); settings: guinea pig cortex, 50 pM 125I-CCK-8, pH 6.5, 25° C., 2 hours
T1 construct: the cortex was removed and homogenized in 25 mL ice-cold 0.32M sucrose; from tissue; host or cells: cortex P2 membranes of male Hartley guinea pigs
T1 sequence (H0VZC5 1-426): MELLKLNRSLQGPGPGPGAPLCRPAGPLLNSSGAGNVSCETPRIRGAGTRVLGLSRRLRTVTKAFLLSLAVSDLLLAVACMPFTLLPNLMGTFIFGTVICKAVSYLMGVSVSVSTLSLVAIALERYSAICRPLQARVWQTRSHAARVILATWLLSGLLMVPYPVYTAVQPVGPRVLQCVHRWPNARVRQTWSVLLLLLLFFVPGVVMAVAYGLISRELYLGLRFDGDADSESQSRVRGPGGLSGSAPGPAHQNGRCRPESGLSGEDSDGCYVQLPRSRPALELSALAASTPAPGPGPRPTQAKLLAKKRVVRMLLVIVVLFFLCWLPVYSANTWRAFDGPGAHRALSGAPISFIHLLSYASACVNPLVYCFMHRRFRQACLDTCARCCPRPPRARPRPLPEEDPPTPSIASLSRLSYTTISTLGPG
Description: CCK-8 sulphated was radiolabelled and the binding was performed according to the description for the pancreas method with minor modifications.
Male Hartley guinea pigs (300-500g) were sacrificed by decapitation and the cortex was removed and homogenized in 25 mL ice-cold 0.32M sucrose. The homogenates were centrifuged at 1000 g for 10 minutes and the resulting supernatant was recentrifuged at 20,000 g for 20 minutes. […] All assays were run in duplicate. The reaction mixtures were incubated at 25° C. for 2 hours and then the reaction was terminated on Whatman GF/C filters by rapid filtration (Brandell 24 well cell Harvester) with 3×5 ml washes of cold 100 mM NaCl. The radioactivity on the filters was then counted with a LKB gamma counter.
Drug displacement studies were performed with at least 10 concentrations of compounds of formula 1 and the IC50 values were determined by regression analysis. IC50 refers to the concentration of the compound required to inhibit 50% of specific binding of ^125 I-CCK-8.

CCK receptor (pancreas) = target: T2, CCK receptor (pancreas) (Rattus norvegicus, UniProt P30551); assay: CCK Receptor Binding (Pancreas), inhibition of 125I-CCK-8 binding; design: species or system rat (male Sprague-Dawley)
T2 construct: The whole pancreas was dissected free of fat tissue and was homogenized; from tissue; host or cells: whole pancreas membranes of male Sprague-Dawley rats
T2 sequence (P30551 1-444): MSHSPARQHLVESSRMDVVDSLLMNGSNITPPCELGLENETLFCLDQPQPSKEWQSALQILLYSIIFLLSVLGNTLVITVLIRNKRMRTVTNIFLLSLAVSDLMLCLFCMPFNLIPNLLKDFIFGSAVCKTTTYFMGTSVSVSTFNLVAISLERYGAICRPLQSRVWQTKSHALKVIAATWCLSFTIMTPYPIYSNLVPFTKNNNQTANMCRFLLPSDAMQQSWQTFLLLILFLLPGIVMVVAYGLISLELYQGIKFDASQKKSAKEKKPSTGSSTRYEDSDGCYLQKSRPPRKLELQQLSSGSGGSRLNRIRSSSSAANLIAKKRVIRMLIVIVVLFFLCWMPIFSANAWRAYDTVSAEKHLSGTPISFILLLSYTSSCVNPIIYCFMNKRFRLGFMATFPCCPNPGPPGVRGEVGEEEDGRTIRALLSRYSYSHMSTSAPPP
Description: 1. CCK Receptor Binding (Pancreas)
Male Sprague-Dawley rats (150-200 g) were sacrificed by decapitation. The whole pancreas was dissected free of fat tissue and was homogenized in 25 volumes of ice-cold 10 mM Hepes buffer with 0.1% soya bean trypsin inhibitor (pH 7.4 at 25° C.) with a Kinematica Polytron. The homogenates were centrifuged at 47,800 g for 10 min. Pellets were resuspended in 10 volumes of binding assay buffer (20 mM Hepes, 1 mM EGTA, 5 mM MgCl2, 150 mM NaCl, bacitracin 0.25 mg/ml, soya bean trypsin inhibitor 0.1 mg/ml, and bovine serum albumin 2 mg/ml, pH 6.5 at 25° C.) using a teflon homogenizer, 15 strokes at 500 rpm. The homogenate was further diluted in binding assay buffer to give a final concentration of 0.5 mg original wet weight/l ml buffer. […] All assays were run in duplicate. The reaction mixtures were incubated at 25° C. for 2 hours and the reaction terminated by rapid filtration (Brandell 24 well cell harvester) over Whatman GF/C filters, washing 3×4 mls with ice-cold 100 mM NaCl. The radioactivity on the filters was counted with a LKB gamma counter.
Drug displacement studies were performed with at least 10 concentrations of compounds of formula 1 and the IC50 values were determined by regression analysis.

[1] = read-out: IC50 125I-CCK Pancreas, rat pancreas, 50 pM 125I-CCK-8, pH 6.5, 25° C., 2 hours
[2] = rat pancreas, 50 pM 125I-CCK-8, pH 6.5, 25° C., 2 hours, read-out: IC50 125I-CCK Pancreas

| pIC50 (CCK receptor (pancreas); [2]) | Structure (SMILES) | pIC50 (CCK receptor (brain)) | pIC50 (CCK receptor (pancreas)) | pIC50 (CCK receptor (pancreas); [1]) |
| --- | --- | --- | --- | --- |
|  | COC(=O)[C@H](Cc1cccc(NC(=O)N[C@@H]2N=C(c3ccccc3)c3ccccc3N(C)C2=O)c1)NC(=O)OC(C)(C)C [Example 1, N-{(3R)-1,3-Dihydro-1-methyl-2-oxo-5-phenyl-1H-1,4-benzodiazepin-3-yl}-N'-{[3-((2S)-tertbutyloxycarbonylamino-2-methoxycarbonyl)ethylphenyl]urea}] | 7.53 | < 5.52 |  |
|  | COC(=O)[C@@H](N)Cc1cccc(NC(=O)N[C@@H]2N=C(c3ccccc3)c3ccccc3N(C)C2=O)c1 [Example 2, N-{(3R)-1,3-Dihydro-1-methyl-2-oxo-5-phenyl-1H-1,4-benzodiazepin-3-yl}-N'-{[3-((2S)-amino-2-methoxycarbonyl)ethylphenyl]-urea}] | 6.94 | < 5.52 |  |
|  | CN1C(=O)[C@H](NC(=O)Nc2cccc(C[C@H](N)C(=O)O)c2)N=C(c2ccccc2)c2ccccc21 [Example 3, N-{(3R)-1,3-Dihydro-1-methyl-2-oxo-5-phenyl-1H-1,4-benzodiazepin-3-yl}-N'-{[3-((2S)-amino-2-carboxy)ethylphenyl]-urea}] | 7.21 |  | < 5.52 |
| 6.02 | COC(=O)[C@H](Cc1cccc(NC(=O)N[C@@H]2N=C(C3CCCCC3)c3ccccc3N(C)C2=O)c1)NC(=O)OC(C)(C)C [Example 4, N-{(3R)-1,3-Dihydro-1-methyl-2-oxo-5-cyclohexyl-1H-1,4-benzodiazepin-3-yl}-N'-{[3-((2S)-tert-butyloxycarbonylamino-2-methoxycarbonyl)ethylphenyl]-urea}] | 8.41 |  |  |
| 6.03 | COC(=O)[C@@H](N)Cc1cccc(NC(=O)N[C@@H]2N=C(C3CCCCC3)c3ccccc3N(C)C2=O)c1 [Example 5, N-{(3R)-1,3-Dihydro-1-methyl-2-oxo-5-cyclohexyl-1H-1,4-benzodiazepin-3-yl}-N'-{[3-((2S)-amino-2-methoxycarbonyl)ethylphenyl]-urea}] | 8.04 |  |  |
| 5.75 | CN1C(=O)[C@H](NC(=O)Nc2cccc(C[C@H](N)C(=O)O)c2)N=C(C2CCCCC2)c2ccccc21 [Example 6, N-{(3R)-1,3-Dihydro-1-methyl-2-oxo-5-cyclohexyl-1H-1,4-benzodiazepin-3-yl}-N'-{[3-((2S )amino-2-carboxy)ethylphenyl]-urea}] | 8.96 |  |  |
|  | COC(=O)[C@@H](NC(=O)OC(C)(C)C)c1cccc(NC(=O)N[C@@H]2N=C(c3ccccc3)c3ccccc3N(C)C2=O)c1 [Example 7, N-{(3R)-1,3-Dihydro-1-methyl-2-oxo-5-phenyl-1H-1,4-benzodiazepin-3-yl}-N'-{[3-((1S)-tert-butyloxycarbonylamino-1-methoxycarbonyl)methylphenyl]-urea}] | 5.70 | < 5.52 |  |
|  | COC(=O)[C@@H](N)c1cccc(NC(=O)N[C@@H]2N=C(c3ccccc3)c3ccccc3N(C)C2=O)c1 [Example 8, N-{(3R)-1,3-Dihydro-1-methyl-2-oxo-5-phenyl-1H-1,4-benzodiazepin-3-yl}-N'-{[3-((1S )-amino-1-methoxycarbonyl)methylphenyl]-urea}] | 6.02 | < 5.52 |  |
|  | CN1C(=O)[C@H](NC(=O)Nc2cccc([C@H](N)C(=O)O)c2)N=C(c2ccccc2)c2ccccc21 [Example 9, N-{(3R)-1,3-Dihydro-1-methyl-2-oxo-5-phenyl-1H-1,4-benzodiazepin-3-yl}-N'-{[3-((1S)-amino-1-carboxy)methylphenyl]-urea}] | 5.88 | < 5.52 |  |
|  | CN1C(=O)[C@H](NC(=O)Nc2cccc([C@@H](N)C(=O)O)c2)N=C(c2ccccc2)c2ccccc21 [Example 10, N-{(3R)-1,3-Dihydro-1-methyl-2-oxo-5-phenyl-1H-1,4-benzodiazepin-3-yl}-N'-{[3-((1R)-amino-1-carboxy)methylphenyl]-urea}] | 5.44 | < 5.52 |  |
|  | COC(=O)CC(NC(=O)OC(C)(C)C)c1cccc(NC(=O)N[C@@H]2N=C(c3ccccc3)c3ccccc3N(C)C2=O)c1 (stereo partly drawn) [Example 11, N-{(3R)-1,3-Dihydro-1-methyl-2-oxo-5-phenyl-1 H-1,4-benzodiazepin-3-yl}-N'-{[3-((1R,S)-tert-butyloxycarbonylamino-2-methoxycarbonyl)ethylphenyl]-urea}] | 6.41 | < 5.52 |  |
|  | COC(=O)CC(N)c1cccc(NC(=O)N[C@@H]2N=C(c3ccccc3)c3ccccc3N(C)C2=O)c1 (stereo partly drawn) [Example 12, N-{(3R)-1,3-Dihydro-1-methyl-2-oxo-5-phenyl-1H-1,4-benzodiazepin-3-yl}-N,- {[3-((1R,S)-amino-2-methoxycarbonyl)ethylphenyl]-urea}] | < 5.52 |  |  |
|  | CN1C(=O)[C@H](NC(=O)Nc2cccc(C(N)CC(=O)O)c2)N=C(c2ccccc2)c2ccccc21 (stereo partly drawn) [Example 13, N-{(3R)-1,3-Dihydro-1-methyl-2-oxo-5-phenyl-1H-1,4-benzodiazepin-3-yl}-N'-{[3-((1R,S)-amino-2-carboxy)ethylphenyl]-urea}] | < 5.52 | < 5.52 |  |
|  | COC(=O)C1(NC(=O)OC(C)(C)C)CCc2cccc(NC(=O)N[C@@H]3N=C(c4ccccc4)c4ccccc4N(C)C3=O)c2C1 (stereo partly drawn) [Example 14, N-{(3R)-1,3-Dihydro-1-methyl-2-oxo-5-phenyl-1H-1,4-benzodiazepin-3-yl}-N'-{[8-(methyl-2(R,S)-tert-butyloxycarbonylamino-1,2,3,4-tetrahydro-2-naphthoate)]-urea}] | 6.19 |  | < 5.52 |
|  | COC(=O)C1(NC(=O)OC(C)(C)C)CCc2ccc(NC(=O)N[C@@H]3N=C(c4ccccc4)c4ccccc4N(C)C3=O)cc2C1 (stereo partly drawn) [Example 15, N-{(3R)-1,3-Dihydro-1-methyl-2-oxo-5-phenyl-1H-1,4-benzodiazepin-3-yl}-N'-{[7-(methyl-2-(R,S)-tert-butyloxycarbonylamino-1,2,3,4-tetrahydro-2-naphthoate)]-urea}] | 6.90 |  | < 5.52 |
|  | COC(=O)C1(N)CCc2ccc(NC(=O)N[C@@H]3N=C(c4ccccc4)c4ccccc4N(C)C3=O)cc2C1 (stereo partly drawn) [Example 16, N-{(3R)-1,3-Dihydro-1-methyl-2-oxo-5-phenyl-1H-1,4-benzodiazepin-3-yl}-N'-{[7-(methyl-2-(R,S)-amino-1,2,3,4-tetrahydro-2-naphthoate)]-urea}] | 6.83 | < 5.52 |  |
|  | CN1C(=O)[C@H](NC(=O)Nc2ccc3c(c2)CC(N)(C(=O)O)CC3)N=C(c2ccccc2)c2ccccc21 (stereo partly drawn) [Example 17, N-{(3R)-1,3-Dihydro-1-methyl-2-oxo-5-phenyl-1H-1,4-benzodiazepin-3-yl}-N'-{[7-(2-(R,S)amino-1,2,3,4-tetrahydro-2-naphthoic acid)]-urea}] | 7.55 | < 5.52 |  |
|  | COC(=O)C1(NC(=O)OC(C)(C)C)CCc2cc(NC(=O)N[C@@H]3N=C(c4ccccc4)c4ccccc4N(C)C3=O)ccc2C1 (stereo partly drawn) [Example 18, N-{(3R)-1,3-Dihydro-1-methyl-2-oxo-5-phenyl-1H-1,4-benzodiazepin-3-yl}-N'-{[6-(methyl-2-(R,S)-tert-butyloxycarbonylamino-1,2,3,4-tetrahydro-2-naphthoate)]-urea}] | < 5.52 |  |  |
|  | COC(=O)C1(N)CCc2cc(NC(=O)N[C@@H]3N=C(c4ccccc4)c4ccccc4N(C)C3=O)ccc2C1 (stereo partly drawn) [Example 19] | < 5.52 | < 5.52 |  |
